Like-named read-outs stand apart in the source and are kept apart here.
How the values were obtained:
[1] = Metabolic stability in human liver microsomes (HLM); assay type: in vitro ADME; details: 0.50 mg protein/mL, NADPH; for Clint: 1 μM compound; for half-life at 1 μM: both sexes, human, pooled human liver microsomes, pH 7.4, 1 μM compound
Protocol: (§1) HLM Stability. Pooled HLM from adult male and female donors (Corning 452117) were used. Microsomal incubations were carried out in multi-well plates. Liver microsomal incubation medium consisted of PBS (100 mM, pH 7.4), MgCl2 (1 mM), and NADPH (1 nmM), with 0.50 mg of liver microsomal protein per mL. Control incubations were performed by replacing the NADPH-cofactor system with PBS. Test compounds (1 μM, final solvent concentration 1.0%) were incubated with microsomes at 37° C. with constant shaking, Six time points over 60 minutes were analyzed, with 60 μL aliquots of the reaction mixture being drawn at each time point. The reaction aliquots were stopped by adding 180 μL of cold (4° C.) acetonitrile containing 200 ng/mL tolbutamide and 200 ng/mL labetalol as internal standards (IS), followed by shaking for 10 minutes, and then protein sedimentation by centrifugation at 4,000 rpm for 20 minutes at 4° C. Supernatant samples (80 μL) were diluted with water (240 μL) and analyzed for parent compound remaining using a fit-for-purpose liquid chromatography-tandem mass spectrometry (LC-MS/MS) method.
(§2) Data Analysis. The elimination constant (kel), half-life (t1/2) and intrinsic clearance (Clint) were determined in a plot of […] versus time, using linear regression analysis.

[2] = Metabolic stability in mouse liver microsomes (MLM); assay type: in vitro ADME, CD-1 mice; details: male, CD-1, mouse, pooled mouse liver microsomes, pH 7.4, 1 μM compound, 0.50 mg protein/mL, NADPH
Protocol: as §1, with “MLM” for “HLM”, “from” for “from adult”, “CD-1 mice (XenoTech M1000)” for “and female donors (Corning 452117)”, “mM),” for “nmM),”, “shaking.” for “shaking,”
Data Analysis. The elimination constant (kel), half-life (t1/2) and intrinsic clearance (Clint) were determined in a plot of ln(AUC) versus […], using linear regression analysis.

[3] = Metabolic stability in rat liver microsomes (RLM); assay type: in vitro ADME, Sprague Dawley rats
Protocol: as §1, with “RLM” for “HLM”, “from” for “from adult”, “Sprague Dawley rats (XenoTech R1000)” for “and female donors (Corning 452117)”, “mM),” for “nmM),”, “shaking.” for “shaking,”
as §2

[4] = Comparative metabolism/PK of 2R and deuterated 7R in rats after oral administration; assay type: in vivo, Sprague Dawley rats; details: for concentration at 0.083 h / concentration at 0.25 h / concentration at 0.5 h / concentration at 1 h / concentration at 2 h / concentration at 4 h: oral; for concentration at 0.083 h: 0.083 h after 10 mg/kg po of 2R or 7R; for concentration at 0.25 h: 0.25 h after 10 mg/kg po of 2R or 7R; for concentration at 0.5 h: 0.5 h after 10 mg/kg po of 2R or 7R; for concentration at 1 h: 1 h after 10 mg/kg po of 2R or 7R; for concentration at 2 h: 2 h after 10 mg/kg po of 2R or 7R; for concentration at 4 h: 4 h after 10 mg/kg po of 2R or 7R
Protocol: Animals. Male Sprague Dawley rats were used in these studies. Animals were randomly assigned to treatment groups and were fasted for 4 h before dosing.
Drugs. Test compounds 2R and 7R were dissolved in a vehicle consisting of normal saline. They were then administered orally (po) at a dose of 10 mg/kg (calculated based on freebase), and at a volume of 5 mL/kg body weight.
Sample Collection and Bioanalysis. Blood samples (approximately 60 μL) were collected under light isoflurane anesthesia (Surgivet®) from the retro orbital plexus at 0.08, 0.25, 0.5, 1, 2, 4, 8, and 24 h (4 animals per time point). Immediately after blood collection, plasma was harvested by centrifugation at 4,000 rpm for 10 min at 4° C. and samples were stored at −70±10° C. until bioanalysis. Following blood collection, animals were immediately sacrificed, the abdominal vena-cava was cut open, and the whole body was perfused from the heart using 10 mL of normal saline, and brain samples were collected from all animals. After isolation, brain samples were rinsed three times in ice-cold normal saline (for 5-10 seconds/rinse using ˜5-10 mL normal saline in disposable petri dish for each rinse) and dried on blotting paper. Brain samples were homogenized using ice-cold phosphate-buffered saline (pH 7.4) Total homogenate volume was three times the tissue weight. All homogenates were stored at −70±10° C. until bioanalysis. For bioanalysis, 25 μL aliquots of plasma/brain study samples or spiked plasma/brain calibration standards were added to individual pre-labeled micro-centrifuge tubes followed by 100 μL of an internal standard solution (glipizide, 500 ng/mL in acetonitrile) except for blanks, where 100 μL of acetonitrile was added. Samples were vortexed for 5 minutes and then centrifuged for 10 minutes at 4,000 rpm at 4° C. Following centrifugation, 100 μL of each clear supernatant was transferred to a 96 well plate and analyzed with a fit-for-purpose LC-MS/MS method, with authentic samples of each analyte used for calibration and identification. Concentrations of parent compound (2R or 7R) and metabolite 1R were determined in all samples.
Data Analysis. Pharmacokinetic parameters were estimated using the non-compartmental analysis tool of Phoenix® WinNonlin software (Ver 8.0).

[5] = male, Sprague Dawley, rat, pooled rat liver microsomes, pH 7.4, 1 μM compound, 0.50 mg protein/mL, NADPH
[6] = male, Sprague Dawley, rat, brain, 10 mg/kg, rat brain, read-out: Mean brain concentration
[7] = male, Sprague Dawley, rat, plasma, 10 mg/kg, rat plasma, read-out: Mean plasma concentration
[8] = rat brain after 10 mg/kg po of 2R or 7R, parent or metabolite 1R as labelled

NC1(c2ccc(F)cc2)CCCCC1=O (racemic) [Compound 1, 2-amino-2-(4-fluorophenyl)cyclohexan-1-one]
Clint [1]: <9.6 μL/min/m | half-life at 1 μM [1]: > 2.42 h | half-life at 1 μM [2]: > 2.42 h | microsomal CLint at 1 μM [2]: < 9.6 µL/min/mg | metabolic stability in RLM (in words) [3]: much greater stability | half-life at 1 μM [3, 5]: > 2.42 h | microsomal CLint at 1 μM [3, 5]: < 9.6 µL/min/mg

CNC1(c2ccc(F)cc2)CCCCC1=O (racemic) [Compound 2]
Clint [1]: <9.6 μL/min/m | half-life at 1 μM [1]: > 2.42 h | half-life at 1 μM [2]: 1.68 h | metabolic stability in RLM (in words) [3]: much greater stability | half-life at 1 μM [3, 5]: 1.18 h

NC1(c2cccc(F)c2)CCCCC1=O (racemic) [Compound 3, 2-amino-2-(3-fluorophenyl)cyclohexan-1-one]
metabolic stability in RLM (in words) [3]: much greater stability

[2H]C([2H])([2H])N[C@@]1(c2ccc(F)cc2)CCCCC1=O [Compound 7R]
concentration at 0.083 h [4, 6]: 98 ng/g | concentration at 0.25 h [4, 6]: 2090 ng/g | concentration at 0.5 h [4, 6]: 2200 ng/g | concentration at 1 h [4, 6]: 1770 ng/g | concentration at 2 h [4, 6]: 1420 ng/g | concentration at 4 h [4, 6]: 236 ng/g | half-life ([4]; male, Sprague Dawley, rat, brain, po, 10 mg/kg, rat brain after 10 mg/kg po of 2R or 7R, parent or metabolite 1R as labelled, read-out: t1/2 (brain)): 1.12 h | concentration at 0.083 h [4, 7]: 65 ng/mL | concentration at 0.25 h [4, 7]: 502 ng/mL | concentration at 0.5 h [4, 7]: 799 ng/mL | concentration at 1 h [4, 7]: 564 ng/mL | concentration at 2 h [4, 7]: 396 ng/mL | concentration at 4 h [4, 7]: 68 ng/mL | Cmax ([4]; male, Sprague Dawley, rat, plasma, po, 10 mg/kg, rat plasma after 10 mg/kg po of 2R or 7R, parent or metabolite 1R as labelled): 799 ng/mL | AUC(0-t) ([4]; male, Sprague Dawley, rat, plasma, po, 10 mg/kg, rat plasma after 10 mg/kg po of 2R or 7R, parent or metabolite 1R as labelled, read-out: AUC0-last (plasma) (converted)): 1650 ng·h/mL | half-life ([4]; male, Sprague Dawley, rat, plasma, po, 10 mg/kg, rat plasma after 10 mg/kg po of 2R or 7R, parent or metabolite 1R as labelled, read-out: t1/2 (plasma)): 1.08 h | AUC0-last (brain) [4, 8]: 330347 ng·min/g | Cmax (brain) [4, 8]: 2197 ng/g | exposure (AUC) in plasma and brain compared to non-deuterated 2R ([4]; rats, 10 mg/kg po): greater exposure

Cc1ccc(C2(N)CCCCC2=O)cc1 (centres unmarked) [Compound 10, 2-amino-2-(p-tolyl)cyclohexan-1-one]
half-life at 1 μM [3, 5]: 0.06 h

CNC1(c2ccc(C)cc2)CCCCC1=O (centres unmarked) [Compound 11, 2-(methylamino)-2-(p-tolyl)cyclohexan-1-one]
half-life at 1 μM [3, 5]: 0.055 h

Cc1cccc(C2(N)CCCCC2=O)c1 (centres unmarked) [Compound 12, 2-amino-2-(m-tolyl)cyclohexan-1-one]
half-life at 1 μM [3, 5]: 0.12 h
